12 compounds from patent US12692247B2, “Phenyl- and pyridopyrazole derivatives as inhibitors of DDR1” (Redx Pharma Limited, priority 2021, dated 2026) can be followed below.

For one test, the target named is T1, Recombinant human DDR2 (Homo sapiens, UniProt Q16832).
T1 construct: DDR2 (1.75 nM; aa427-855 containing a GST tag)
T1 sequence (Q16832 427-855): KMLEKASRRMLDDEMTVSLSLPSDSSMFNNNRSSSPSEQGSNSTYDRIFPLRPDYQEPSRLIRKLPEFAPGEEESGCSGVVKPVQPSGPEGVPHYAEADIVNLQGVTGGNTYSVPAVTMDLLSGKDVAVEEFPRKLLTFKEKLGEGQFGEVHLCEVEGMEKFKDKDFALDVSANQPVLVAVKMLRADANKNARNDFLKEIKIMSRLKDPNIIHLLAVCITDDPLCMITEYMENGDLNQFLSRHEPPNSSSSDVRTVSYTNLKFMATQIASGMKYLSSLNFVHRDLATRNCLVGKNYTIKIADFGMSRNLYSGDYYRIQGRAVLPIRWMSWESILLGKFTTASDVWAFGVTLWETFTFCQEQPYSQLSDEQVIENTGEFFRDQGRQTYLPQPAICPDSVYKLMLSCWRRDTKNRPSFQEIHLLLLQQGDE
The test is described as follows: LanthaScreen Eu Kinase Binding Assay, DDR2. The conditions noted are these: recombinant human DDR2 (1.75 nM; aa427-855, GST tag), Kinase Tracer 178 10 nM, time-resolved fluorescence, at least two independent replicates; read-out: DDR2 pIC50 (converted). The method, then:
(§1) DDR1 and DDR2 Biochemical Assay Method
(§2) The capacity of compounds to bind to DDR1 and DDR2 was quantified using a LanthaScreen Eu Kinase Binding Assay. Recombinant human DDR1 (2.5 nM; aa440-876 containing a GST tag) and DDR2 (1.75 nM; aa427-855 containing a GST tag) were diluted in assay buffer (50 mM HEPES pH7.3, 10 mM MgCl2, 1 mM EGTA and 0.01% Tween) with various concentrations of compound in a 384-well plate and a volume of 5 uL. After a 30-minute incubation at room temperature, 2.5 uL of Eu-anti GST antibody (diluted to 1 nM in assay buffer) plus Kinase Tracer 178 (diluted in assay buffer to 5 nM for DDR1 and 10 nM for DDR2) were added to the plate. Following 60-minute incubation at room temperature, time-resolved fluorescence was measured on a BMG Labtech PHERAstar plate reader. DMSO (1%) and reference compound (1 μM) were used to generate the Max and Min assay signals, respectively. Data was analysed using a four-parameter logistic model to calculate IC50 values, with at least two independent replicates were performed for each compound.

In the next test the target is T2, Recombinant human DDR1 (Homo sapiens, UniProt Q08345).
T2 construct: Recombinant human DDR1 (2.5 nM; aa440-876 containing a GST tag)
T2 sequence (Q08345 440-876 isoform Q08345-2): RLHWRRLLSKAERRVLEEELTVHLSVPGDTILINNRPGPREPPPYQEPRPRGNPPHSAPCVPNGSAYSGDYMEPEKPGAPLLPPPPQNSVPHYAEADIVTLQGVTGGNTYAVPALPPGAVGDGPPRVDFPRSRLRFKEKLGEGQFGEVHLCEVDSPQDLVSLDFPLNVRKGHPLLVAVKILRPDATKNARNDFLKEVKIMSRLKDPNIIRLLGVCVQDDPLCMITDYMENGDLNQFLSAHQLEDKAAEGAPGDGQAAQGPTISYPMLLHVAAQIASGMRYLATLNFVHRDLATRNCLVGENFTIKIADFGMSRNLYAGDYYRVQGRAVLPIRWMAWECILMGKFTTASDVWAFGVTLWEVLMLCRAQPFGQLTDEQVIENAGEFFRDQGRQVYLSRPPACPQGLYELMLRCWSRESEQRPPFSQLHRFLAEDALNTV
Nature of the test: LanthaScreen Eu Kinase Binding Assay, DDR1. The following applies: recombinant human DDR1 (2.5 nM; aa440-876, GST tag), Kinase Tracer 178 5 nM, time-resolved fluorescence, at least two independent replicates; read-out: DDR1 pIC50 (converted). As to the method: as §1, §2
(In general: Time-resolved FRET reads energy transfer from a long-lived donor to a nearby acceptor.)

For `Cn1ncc2cc(Nc3cccc4ccn(CC(=O)Nc5cnoc5)c(=O)c34)ccc21` [Example 37, N-isoxazol-4-yl-2-[8-[(1-methylindazol-5-yl)amino]-1-oxo-2-isoquinolyl]acetamide], the values for the IC50 at Recombinant human DDR2 and on Recombinant human DDR1 were 0.01 to 0.1 µM and less than 0.01 µM, respectively.

For `Cn1ncc2cc(Nc3cccc4ccn(CC(=O)Nc5cccc(C(C)(C)O)c5)c(=O)c34)ccc21` [Example 38, N-[3-(1-hydroxy-1-methyl-ethyl)phenyl]-2-[8-[(1-methylindazol-5-yl)amino]-1-oxo-2-isoquinolyl]acetamide], the IC50 on Recombinant human DDR2 was 0.01 to 0.1 µM; on Recombinant human DDR1, less than 0.01 µM.

Take `Cn1ncc2cc(Nc3cccc4ccn(CC(=O)Nc5ccccc5)c(=O)c34)ccc21` [Example 39, 2-[8-[(1-methylindazol-5-yl)amino]-1-oxo-2-isoquinolyl]-N-phenyl-acetamide]: the IC50 is not below 1 µM on Recombinant human DDR2 and 0.01 to 0.1 µM at Recombinant human DDR1.

As to `Cn1cc(NC(=O)Cn2ccc3cccc(Nc4ccc5c(cnn5C)c4)c3c2=O)cn1` [Example 41, 2-[8-[(1-methylindazol-5-yl)amino]-1-oxo-2-isoquinolyl]-N-(1-methylpyrazol-4-yl)acetamide], the IC50 is not below 1 µM on Recombinant human DDR2 and 0.1 to 1 µM on Recombinant human DDR1.

For `Cn1ncc2cc(Nc3cccc4ccn(CC(=O)NC5(C(F)(F)F)CCCC5)c(=O)c34)ccc21` [Example 42, 2-[8-[(1-methylindazol-5-yl)amino]-1-oxo-2-isoquinolyl]-N-[1-(trifluoromethyl)cyclopentyl]acetamide], the IC50 is 0.1 to 1 µM at Recombinant human DDR2 and 0.01 to 0.1 µM on Recombinant human DDR1.

`Cn1ncc2cc(Nc3cccc4ccn(CC(=O)N5CCOC(C(F)(F)F)C5)c(=O)c34)ccc21` (stereo not drawn) [Example 43, 8-[(1-methylindazol-5-yl)aminio]-2-[2-oxo-2-[2-(trifluoromethyl)morpholin-4-yl]ethyl]isoquinolin-1-one]: the IC50 is not below 1 µM at Recombinant human DDR2 and 0.01 to 0.1 µM at Recombinant human DDR1.

As for `Cn1ncc2cc(Nc3cccc4ccn(CC(=O)NCCC(F)(F)F)c(=O)c34)ccc21` [Example 44, 2-[8-[(1-methylindazol-5-yl)amino]-1-oxo-2-isoquinolyl]-N-(3,3,3-trifluoropropyl)acetamide], the values for the IC50 on Recombinant human DDR2 and on Recombinant human DDR1 were not below 1 µM and 0.1 to 1 µM, respectively.

`CC[C@H](NC(=O)Cn1ccc2cccc(Nc3ccc4c(cnn4C)c3)c2c1=O)C(F)(F)F` [Example 45, 2-[8-[(1-methylindazol-5-yl)amino]-1-oxo-2-isoquinolyl]-N-[(1S)-1-(trifluoromethyl)propyl]acetamide]: the IC50 at Recombinant human DDR2 and on Recombinant human DDR1 was 0.01 to 0.1 µM throughout.

In the case of `CC(C)[C@H](NC(=O)Cn1ccc2cccc(Nc3ccc4c(cnn4C)c3)c2c1=O)C(F)(F)F` [Example 46, 2-[8-[(1-methylindazol-5-yl)amino]-1-oxo-2-isoquinolyl]-N-[(S)-2-methyl-1-(trifluoromethyl)propyl]acetamide], the IC50 on Recombinant human DDR2 and at Recombinant human DDR1 was 0.01 to 0.1 µM in each case.

In the case of `Cn1ncc2cc(Nc3cc(F)cc4ccn(CC(=O)NCC(F)(F)F)c(=O)c34)ccc21` [Example 47, 2-[6-fluoro-8-[(1-methylindazol-5-yl)amino]-1-oxo-2-isoquinolyl]-N-(2,2,2-trifluoroethyl) acetamide], the figures for the IC50 on Recombinant human DDR2 and at Recombinant human DDR1 were not below 1 µM and 0.1 to 1 µM, respectively.

With `Cn1ncc2cc(Nc3cccc4ccn(CC(=O)Nc5cc(C(F)(F)F)no5)c(=O)c34)ccc21` [Example 48, 2-[8-[(1-methylindazol-5-yl)amino]-1-oxo-2-isoquinolyl]-N-[3-(trifluoromethyl)isoxazol-5-yl]acetamide], the IC50 at Recombinant human DDR2 and at Recombinant human DDR1 was 0.01 to 0.1 µM each time.

`Cn1ncc2cc(Nc3cccc4ccn(CC(=O)N5CCC[C@H]5C(F)(F)F)c(=O)c34)ccc21` [Example 49]: the values for the IC50 at Recombinant human DDR2 and on Recombinant human DDR1 were 0.01 to 0.1 µM and less than 0.01 µM, respectively.
